In the NIST ThermoML archive (doi:10.1016/j.jct.2010.07.016):

Columns and labels:
[1] = xn = mol fraction of the nth substance listed; conditions: 308.15 K, 101 kPa, Liquid; for excess molar volume: Direct dilatometry; for speed of sound: Linear variable-path acoustic interferometer
[2] = excess molar enthalpy (molar enthalpy of mixing); xn = mol fraction of the nth substance listed; conditions: 308.15 K, 101 kPa, Liquid, Drop calorimeter

Cc1ccccc1C [1,2-dimethylbenzene] + C1CCOCC1
Conditions | excess molar enthalpy [kJ/mol] | excess molar volume [m3/mol] | speed of sound [m/s]
[1], x2 = 0.0536 | – | -1.2e-08 | –
[1], x2 = 0.0643 | – | -1.4e-08 | –
[1], x2 = 0.0805 | – | -1.7e-08 | –
[1], x2 = 0.0854 | – | – | 1319
[1], x2 = 0.1127 | – | -2.3e-08 | –
[1], x2 = 0.1494 | – | – | 1315
[1], x2 = 0.1816 | – | -3.4e-08 | –
[1], x2 = 0.2134 | – | – | 1309
[1], x2 = 0.2834 | – | – | 1303
[1], x2 = 0.2975 | – | -4.7e-08 | –
[1], x2 = 0.3778 | – | – | 1293
[1], x2 = 0.3954 | – | -5.3e-08 | –
[1], x2 = 0.4756 | – | – | 1281
[1], x2 = 0.4935 | – | -5.5e-08 | –
[1], x2 = 0.5132 | – | – | 1277
[1], x2 = 0.52 | – | -5.4e-08 | –
[1], x2 = 0.5642 | – | -5.3e-08 | –
[1], x2 = 0.5668 | – | – | 1270
[1], x2 = 0.6124 | – | – | 1265
[1], x2 = 0.6421 | – | -4.8e-08 | –
[1], x2 = 0.7035 | – | – | 1254
[1], x2 = 0.7314 | – | -4e-08 | –
[1], x2 = 0.7866 | – | – | 1245
[1], x2 = 0.8645 | – | – | 1237
[1], x2 = 0.8832 | – | -1.9e-08 | –
[1], x2 = 0.9228 | – | -1.3e-08 | –
[1], x2 = 0.9344 | – | – | 1230
[1], x2 = 0.9545 | – | – | 1228
[2], x2 = 0.0587 | -0.0266 | – | –
[2], x2 = 0.0691 | -0.0305 | – | –
[2], x2 = 0.0838 | -0.0356 | – | –
[2], x2 = 0.1451 | -0.0516 | – | –
[2], x2 = 0.1809 | -0.0573 | – | –
[2], x2 = 0.2454 | -0.0613 | – | –
[2], x2 = 0.3023 | -0.0588 | – | –
[2], x2 = 0.3872 | -0.0465 | – | –
[2], x2 = 0.4425 | -0.0342 | – | –
[2], x2 = 0.5752 | 0.0024 | – | –
[2], x2 = 0.647 | 0.022 | – | –
[2], x2 = 0.7443 | 0.0421 | – | –
[2], x2 = 0.8495 | 0.0467 | – | –
[2], x2 = 0.9437 | 0.0267 | – | –

C1CCOCC1 [tetrahydropyran] + Cc1ccccc1
Conditions | excess molar enthalpy [kJ/mol] | excess molar volume [m3/mol] | speed of sound [m/s]
[1], x1 = 0.0554 | – | -3.1e-08 | –
[1], x1 = 0.0673 | – | -3.7e-08 | –
[1], x1 = 0.085 | – | -4.6e-08 | –
[1], x1 = 0.0925 | – | – | 1259
[1], x1 = 0.1343 | – | – | 1258
[1], x1 = 0.1534 | – | -7.9e-08 | –
[1], x1 = 0.1789 | – | – | 1257
[1], x1 = 0.1861 | – | -9.2e-08 | –
[1], x1 = 0.2311 | – | -1.1e-07 | –
[1], x1 = 0.2587 | – | – | 1256
[1], x1 = 0.2942 | – | -1.29e-07 | –
[1], x1 = 0.3742 | – | – | 1254
[1], x1 = 0.4109 | – | -1.53e-07 | –
[1], x1 = 0.4263 | – | – | 1253
[1], x1 = 0.4815 | – | – | 1251
[1], x1 = 0.5187 | – | – | 1250
[1], x1 = 0.5273 | – | -1.59e-07 | –
[1], x1 = 0.5795 | – | – | 1248
[1], x1 = 0.6433 | – | -1.46e-07 | –
[1], x1 = 0.6765 | – | – | 1243
[1], x1 = 0.7122 | – | – | 1242
[1], x1 = 0.7215 | – | -1.27e-07 | –
[1], x1 = 0.7646 | – | – | 1239
[1], x1 = 0.8202 | – | -9.3e-08 | –
[1], x1 = 0.8487 | – | – | 1234
[1], x1 = 0.9252 | – | – | 1229
[1], x1 = 0.9297 | – | -4e-08 | –
[1], x1 = 0.9735 | – | -1.6e-08 | –
[2], x1 = 0.0445 | -0.0285 | – | –
[2], x1 = 0.0662 | -0.0427 | – | –
[2], x1 = 0.0837 | -0.0541 | – | –
[2], x1 = 0.1138 | -0.0737 | – | –
[2], x1 = 0.2154 | -0.135 | – | –
[2], x1 = 0.2806 | -0.169 | – | –
[2], x1 = 0.3031 | -0.179 | – | –
[2], x1 = 0.397 | -0.21 | – | –
[2], x1 = 0.5319 | -0.223 | – | –
[2], x1 = 0.6305 | -0.206 | – | –
[2], x1 = 0.7413 | -0.163 | – | –
[2], x1 = 0.8325 | -0.112 | – | –
[2], x1 = 0.9352 | -0.0445 | – | –
[2], x1 = 0.9727 | -0.0187 | – | –
